Several values for one entry are separate records, joined by “and”; a condition that tells them apart may be missing. Equal entries are not always repeated.
Legend:
[1] = test system: animal models of neuropathic pain (spinal nerve ligation); details: administered locally; cited from earlier work
[2] = test system: animal models of inflammatory pain (formalin test); details: administered locally; cited from earlier work
rats = details: systemic, cited from earlier work
[3] = set-up: species or system human; details: in vivo
Method: The pharmacokinetic parameters of Cmax, Tmax, AUC(0-tlast) and t½ were evaluated.

[4] = organic solvents; cited from earlier work
[5] = test system: subjects with osteoarthritis of the knee; test: Osteoarthritis of the knee safety study: safety and tolerability of intra-articular capsaicin; format: in vivo, human; details: for patients reporting transient burning pain / post injection hyperalgesia after instillation: 4 subjects
Method: The primary objective of the study was to evaluate the safety and tolerability of intra-articular capsaicin, when co-administered with intra-articular local anesthetic, compared to placebo, in subjects with end-stage osteoarthritis of the knee, already scheduled to receive knee replacements.
The study was designed to include 16 evaluation subjects. […] Sixteen subjects completed the study.
Patients were treated randomly and in double-blind fashion in four treatment groups, with each group having a progressively longer interval between the intra-articular administration of study medication and subsequent total knee replacement (2, 4, 7, and 14 days). […] Gross and microscopic pathology analysis was completed for each treatment group before the next treatment group was treated.
(§1) Each subject had 3 study visits: a Screening Day (Day −7 to −1), the Treatment Day (Day 0), and a Post-Treatment Day (scheduled for Day +2, +4, +7, or +14). On the Treatment Day the subject was randomized, pre-treatment evaluation was performed. The patients were brought into the procedure room, and a VAS pain score was taken (0 mm-no pain, 100 mm-extreme pain). Once the patient had marked his or her pain on the card, he/she was prepped for knee cannulation. Once the cannula was placed, the patient received by intra-articular infiltration, 3 mg/kg (maximum dose of 200 mg) of 2% lignocaine into the knee scheduled to be replaced.
(§2) VAS pain scores as well as verbal reports were taken immediately following administration, as well as prior to knee replacement surgery. No subjects discontinued from the study due to adverse events.

[6] = test system: subjects with osteoarthritis of the knee; test: Osteoarthritis of the knee safety study: VAS pain score at the target knee; format: in vivo, human
Method: as §1, §2
On the Post-Treatment Day, study evaluation was performed followed by the scheduled knee replacement, with intra-operative bone and soft tissue biopsies performed for subsequent examination. […] This therefore left the 3 placebo and 9 active patients from the 4 day, 7 day, and 14 day cohorts.

[7] = test system: subjects undergoing transpositional osteotomy (bunionectomy); test: Bunionectomy efficacy study: VAS pain score and rescue medication; format: in vivo, human; details: for VAS pain score at operation site: 1000 μg into wound, mean +/- SEM, n = 11
Method: The primary efficacy endpoint was the proportion of subjects in each treatment group requiring opioid analgesia in the first 24 hours post-operatively. The proportions were compared amongst treatment groups using the Cochran-Haenszel test. Secondary efficacy end points included: i) proportion of subjects in each treatment group requiring opioid analgesia in the first 36 hour period post-operatively (Similarly, the proportions were compared amongst treatment groups using the Cochran-Haenszel test); ii) proportion of subjects in each treatment group requiring opioid analgesia in the 10 day period post-operatively (Similarly, the proportions were compared amongst treatment groups using the Cochran-Haenszel test); iii) time to first usage of opioid analgesia in each treatment group (a survival analysis approach will be used: the product-limit (Kaplan-Meier) method will be applied to time to first usage of opioid analgesia. The median time to first usage of opioid analgesia will be estimated in both treatment groups. Pairwise comparisons will be performed to test for equality of the survival curves between the 2 treatment groups using both the log-rank and the Wilcoxon test); iv) total usage of analgesia in each treatment group (the total usage of analgesia will be compared by an analysis of variance with treatment and center as independent variables. A pairwise comparison will be performed between the treatment groups); and v) VAS assessment of pain at the site of operation in each treatment group (The VAS score at each time point will be compared by an analysis of variance with treatment and center as independent variables. A pairwise comparison will be performed between the treatment groups). […] The efficacy analysis was performed on the data obtained ten days postoperatively. The safety analysis was performed based on the safety data for the entire study, including the 6 week and 12 week follow-up periods. The blind was broken at the time the efficacy analysis was performed. However, the individual treatment assignment was available to the statistical analysis group only. All other personnel involved in the study, including the Investigator, study monitor and proprietary staff, remained blinded until the entire study was completed.
The study was designed to include 40 evaluation subjects. […] Each subject had six (6) study visits: a Screening Day (Day −28 to −1), an Operation Day (Day 0), and four (4) Follow-up visits (scheduled for Days 3, 10 and weeks 6 and 12).
On Operation Day (Day 0) the following was performed: a) Pre-operation: Prior to the initiation of an ankle block, inclusion/exclusion criteria assessment was performed. […] Immediately prior to wound closure, the Investigator slowly dripped the study medication (4 mL) from a syringe into the wound, ensuring even tissue exposure. The wound was then be closed according to normal practices and procedures.
In the 24 hours following administration of study medication, vital signs (supine pulse rate and blood pressure) were recorded at 1, 2, 4 and 24 hours post administration. VAS assessment of pain at the operation site was performed at 1, 4, 8, 12 and 24 hours post administration. In those instances where VAS measurements coincide with blood sampling procedures, the VAS assessment was performed first. […] The quantity of each blood sample was 10 mL. Laboratory safety assessments, e.g., haematology, biochemistry, urinalysis were performed at 24 hours post administration. Adverse events were spontaneously reported by the subject and recorded. Rescue analgesia medication was provided to the subject if required (initially diclofenac 50 mg, repeated at 8 hourly intervals if necessary). When diclofenac was judged by the Investigator to provide inadequate pain relief then the subject was provided with alfentanil 1 mg, repeated at 6 hourly intervals, if necessary.

## CNCCCN1c2ccccc2CCc2ccccc21 [desipramine]
[1]
  local antinociceptive action: produced local antinociceptive actions
[2]
  local antinociceptive action: produced local antinociceptive actions

## COc1cc(CNC(=O)CCCC/C=C/C(C)C)ccc1O [purified capsaicin, N-(4-hydroxy-3-methoxybenzyl)-8-methylnon-trans-6-enamide]
rats; final doses 50 mg/kg or greater
  effect on pain threshold: pain threshold elevated
rats; final doses of 25 mg/kg or less, prior to ultra violet radiation
  effect on radiation induced hyperalgesia and pain threshold: prevented radiation induced hyperalgesia, but did not elevate the pain threshold above normal range
[3]
  plasma concentrations compared with 100 μg or 300 μg dose groups: clearly lower
[4]
  solubility in alcohol, ether, benzene and chloroform: freely soluble
[5]; 10 μg intra-articular after 2% lignocaine
  patients reporting transient burning pain / post injection hyperalgesia after instillation: no subjects
[5]; 10 μg intra-articular after 2% lignocaine, listed as capsaicin
  patients reporting transient burning pain / post injection hyperalgesia after instillation: 0 of 4
[5]; 100 μg dose group, individual subject
  duration of post-administration (hyper) algesic pain: 9 min
[5]; 100 μg intra-articular after 2% lignocaine
  patients reporting transient burning pain / post injection hyperalgesia after instillation: 1
[5]; 100 μg intra-articular after 2% lignocaine, listed as capsaicin
  patients reporting transient burning pain / post injection hyperalgesia after instillation: 1 of 4
[5]; 300 μg intra-articular after 2% lignocaine
  patients reporting transient burning pain / post injection hyperalgesia after instillation: 4
[5]; 300 μg intra-articular after 2% lignocaine, listed as capsaicin
  patients reporting transient burning pain / post injection hyperalgesia after instillation: 4 of 4
[5]; 10-300 μg
  effects on laboratory safety parameters or vital signs: no treatment related effects
  effects on soft tissue, cartilage, or bone upon histopathological examination: no treatment related effects
  signs of erythema, edema, or hemorrhage at the site of injection: no treatment related signs
  systemic side effects: No treatment related systemic side effects
[5]; all cases
  average duration of hyperalgesia: less than thirty minutes
[5]; knee replaced 2-14 days after dosing
  gross and microscopic pathology: normal
[6]; 9 active patients of 4, 7 and 14 day cohorts, 10-300 μg pooled
  VAS reduction, prior to administration vs day of surgery: 62±14%
[6]; all 3 capsaicin dose groups
  median decrease from baseline to pre-operative time point in VAS for pain at target knee vs placebo: substantially greater
[6]; any of the dose levels 10, 100, 300 μg
  treatment related indication of efficacy (VAS): No clear treatment related indication of efficacy
[7]; 1000 μg into the wound prior to wound closure
  effect on pain score and use of rescue: reduced both pain score as well as the use of rescue
[7]; 1000 μg, individual subjects
  time at which subject required rescue: 1 h and 4 h and 5 h and 8 h and 12 h
[7]; 8 hr
  VAS pain score at operation site: 5.5 +/− 2.3
[7]; 12 hr
  VAS pain score at operation site: 8.2 +/− 3.8
[7]; 24 hr
  VAS pain score at operation site: 1.9 +/− 1.0
[7]; 48 hr
  VAS pain score at operation site: 5.9 +/− 2.5

## CN(C)CCC=C1c2ccccc2CCc2ccccc21 [amitriptyline]
[1]
  local antinociceptive action: produced local antinociceptive actions
[2]
  local antinociceptive action: produced local antinociceptive actions
